From publication PMC3408433, “Selective Cytotoxicity of Amidinopiperidine Based Compounds Towards Burkitt’s Lymphoma Cells Involves Proteasome Inhibition” (PLoS ONE, 2012)
pIC50, pKi: −log10 of the molar value.

Tests used:
[1] = target: T1, 20S proteasome (Homo sapiens, UniProt P28072+P28074+Q99436); assay: Rapid dilution assay (reversibility); type: biochemical
T1 construct: purchased Boston Biochem, Inc
Method: The enzyme-inhibitor complex was diluted 100-fold with the substrate of interest to a final volume of 200 µL, initiating the reaction. In the case of reversibility of the inhibitor the residual enzyme activity was expected to be around 90%.

[2] = target: T2, trypsin-like activity of human 20S proteasome (Homo sapiens, UniProt Q99436); assay: Proteasome activity measurement, trypsin-like; type: biochemical; settings: for pKi: purified human 20S proteasome, Bz-Val-Gly-Arg-AMC, non-competitive
T2 construct: purchased Boston Biochem, Inc
Method: (§1) Suc-Leu-Leu-Val-Tyr-AMC, Bz-Val-Gly-Arg-AMC and Z-Leu-Leu-Glu-AMC (Bachem, Bubendorf, Switzerland) were used for the chymotrypsin-like, trypsin-like and caspase-like activites, respectively. Assay buffer consisted of TE buffer (20 mM Tris (pH = 8.0), 0.5 mM EDTA, 0.03% SDS). Substrate hydrolysis was continuously monitored at 37°C with an automated microplate reader (Tecan Safire^2). Measured fluorescence values (RFU) were plotted versus time with nonlinear regression to fit a Michaelis-Menten plot.
(§2) For the Ki determination, 25 µL of substrate at three concentrations and 25 µL of inhibitor of interest also at three different concentrations were added to the wells of a white microplate. The reaction was initiated with 50 µL of the enzyme in the assay buffer. Flourescence of the AMC release was continuously monitored at 420 nm with 320 nm excitation.
(§3) Km and Ki were calculated using SigmaPlot 11 (Enzyme Kinetics Module 1.3) and are presented as the mean of three independent experiments.

[3] = target: α-chymotrypsin (Bos taurus, UniProt P00766); assay: α-Chymotrypsin inhibition assay
Method: In short, a 1 nM solution of α-chymotrypsin was mixed with various concentrations of the substrate Suc-Ala-Ala-Pro-Phe-AMC. All the solutions were prepared in 144 mM Tris–HCl, pH 7.8. Substrate hydrolysis was monitored at 30°C on an automated Tecan Safire^2 microplate reader (Tecan, Mannedorf/Zürich, Switzerland). The initial rates of the reactions (ΔF/Δt) were measured immediately after the addition of the substrate (within 200 s) and plotted versus substrate concentration with nonlinear regression to fit a Michaelis-Menten plot. The curve fit and kinetic parameters (Km and v max) were calculated using GraphPad PRISM version 5.0 software (GraphPad Software, Inc., CA, USA). […] The initial velocities of the hydrolysis reactions were measured under the same conditions as described for the determination of Km. 50 µl of α-chymotrypsin solution was added to 50 µl of each inhibitor solution (prepared in 144 mM Tris–HCl, pH 7.8; final concentration 1 nM) and incubated at 30°C for 15 min. The reaction was initiated with the addition of 100 µl of substrate. […] The Ki values were determined as mean values of all measurements.

[4] = tested on: Ramos Burkitt’s lymphoma cells; assay: Metabolic activity assay (MTS), Ramos; type: cell-based, human; settings: 24 h; for residual metabolic activity relative to control: 50 µM; for cytotoxicity group (Figure 3A) / viability at 100 µM: 100 µM; for viability at 100 µM: Homo sapiens, read-out: residual metabolic activity relative to untreated control
Method: When investigating the potency of selected serine protease inhibitors to induce cell death in human B lymphoma cells, we identified a set of compounds cytotoxic for Burkitt’s lymphoma. Using a metabolic activity assay (MTS), we evaluated the proliferation rate of Ramos Burkitt’s lymphoma cells, in the presence of serine protease inhibitors. Cells were treated for 24 h with the compound of interest at concentrations of 100 µM (1–13, 15, 16) or 50 µM (14). After a comparison of metabolic activity relative to that in the untreated control, three groups with distinct modes of action were determined (Figure 3A). […] The second group (compounds 1–3, 5, 7 and 13) caused a moderate decrease (50% to 80%) relative to untreated cells. The last group of compounds (11, 15, 16) severely impaired the metabolic activity, such that it fell to under 6%.
Cells (1×10^5 cells/mL for Ramos, Daudi, U937 and Jurkat, and 1×10^6 cells/mL for PBMC) were treated with the appropriate amounts of compounds of interest or corresponding vehicle (control cells), then seeded in triplicate in 96 well plates. The metabolic activity was assessed using the CellTiter 96® Aqueous One Solution Cell Proliferation Assay (Promega, Madison/WI, USA), in accordance with the manufacturer’s instructions.

[5] = tested on: Ramos Burkitt’s lymphoma cells; assay: Metabolic activity assay (MTS), Ramos; type: cell-based; settings: Homo sapiens, 24 h, read-out: IC50, inhibition of proliferation (metabolic activity)
[6] = target: T3, chymotrypsin-like activity of human 20S proteasome (Homo sapiens, UniProt P28074); assay: Proteasome activity measurement, chymotrypsin-like; type: biochemical; settings: purified human 20S proteasome, Suc-Leu-Leu-Val-Tyr-AMC, uncompetitive
T3 construct: purchased Boston Biochem, Inc
Method: as §1, §2, §3

[7] = tested on: procaspase-3 cleavage in Ramos cells; assay: Western blot analysis of caspase-3 processing; type: cell-based, human; settings: compound 50 µM, zVad-fmk 50 µM
Method: Ramos cells were seeded in 6-well culture plates at a concentration of 1×10^6 cells/mL and treated with the compound of interest or corresponding vehicle for 1 h, 2 h or 6 h. After the indicated time points, cells were harvested, washed in ice-cold PBS and lysed in modified RIPA buffer (50 mM Tris-HCl, pH 7.4, 150 mM NaCl, 1% NP−40, 0.25% Na-deoxycholate, 1 mM EDTA, 1 µg/mL aprotinin, 1 mM PMSF and 1× Halt Phosphatase inhibitor cocktail (Thermo Scientific, Pierce Biotechnology, IL, USA)). The lysates were sonicated, rocked on ice for 30 min and centrifuged at 13,000 rpm at 4°C for 15 min. Protein samples were electrophoresed in SDS-polyacrylamide gels and then transferred to nitrocellulose membranes. The primary antibodies used were against ubiquitin, phospho-IκBα, IκBα, p65 and caspase-3 (Cell Signaling, Danvers/MA, USA), and p105/p50 (Santa Cruz Biotechnology, Inc., Santa Cruz/CA, USA), and ß-actin (Sigma-Aldrich). Following incubation with the primary antibody, membranes were washed six times and incubated for 1 h at room temperature with the corresponding dilution of the appropriate secondary antibody conjugated with horseradish peroxidase (Upstate, Temecula, CA, USA). The immunoreactivity of respective proteins of interest was determined by chemiluminescence using the SuperSignal West Femto substrate (Pierce, IL, USA), in accordance with the manufacturer's instructions. […]

[8] = tested on: Ramos cells; assay: Cell cycle analysis (PI staining); type: cell-based, human; settings: for cell cycle distribution / percentage of cells in the sub-G1 phase (< 2n): 50 µM, 24 h; for percentage of cells in the sub-G1 phase (< 2n): PI staining; for number of hypodiploid cells: 48 h treatment, untreated 3.4%
Method: Ramos cells (5×10^5 cells) were treated with the compound of interest for 24 h. The cells were then washed with PBS and subjected to fixation with 80% ethanol at –20°C for 15 min. Fixated cells were pelleted by centrifugation and rehydrated in 5 mL of PBS for 15 min at room temperature. Collected cells were resuspended in 500 µL staining buffer (3 µM propidium iodide, 100 mM Tris, pH 7.4, 150 mM NaCl, 1 mM CaCl2, 0.5 mM MgCl2, 0.1% Nonident P-40). After 15 min of incubation, samples were analysed on a FACScalibur and evaluated using FlowJo software (BD bioscience, Franklin Lakes/NJ, USA).

[9] = target: Trypsin; parameters: method as in PMID 15497744, PMID 15544050, PMID 17484277; settings: amidolytic assay, chromogenic substrate; determined previously; cited from earlier work
[10] = tested on: NFκB transcriptional activity in Ramos-Blue cells; assay: Quanti-blue assay, NFκB transcriptional activity (SEAP reporter); type: cell-based, human; settings: 50 µM pretreatment 1 h, TNF-α 100 ng/mL, 8 h
Method: Ramos-Blue™ cells (Invivogen), which stably express an NF-κB/AP-1-inducible secreted embryonic alkaline phosphate (SEAP) reporter construct, were assayed for NFκB transcriptional activity changes upon pretreating them with the compound of interest (50 µM) for 1 h and subsequently stimulating them with recombinant TNF-α (100 ng/mL). SEAP activity was determined in the supernatant in accordance with the manufacturer’s instructions. Briefly, to 200 µL of QUANTI-Blue regent 20 µL of cell supernatant was added and incubated at 37°C for 3 h. Abosorbance was measured on microplate reader Tecan Safire^2 at 640 nm.

Q: Which “reversibility of proteasome inhibition” value [1] does the source give for `N=C(N)N1CCC(CN(NS(=O)(=O)c2ccc3ccccc3c2)C(=O)N2CCCCC2)CC1` [Compound 15] here?
A: reversibly inhibit

Q: And the pKi [2]?
A: 4.89

Q: What about the pKi [3] of the same compound?
A: 4.56

Q: And the “residual metabolic activity relative to control” value [4]?
A: severe and selective decrease

Q: And the “cytotoxicity group (Figure 3A)” value [4]?
A: severely cytotoxic (severely impaired the metabolic activity, such that it fell to under 6%)

Q: And the viability at 100 µM [4]?
A: < 6%

Q: What about the pIC50 [5] of the same compound?
A: 4.74

Q: And the “Ki ' chymotrypsin-like activity” value [6]?
A: Ki ' = 84±15 µM

Q: What about the “compound-induced procaspase-3 cleavage after zVad-fmk pretreatment” value [7] of the same compound?
A: completely blocked

Q: What about the cell cycle distribution [8] of the same compound?
A: accumulation of cells in the S phase

Q: And the “percentage of cells in the sub-G1 phase (< 2n)” value [8]?
A: 8.7%

Q: And the “number of hypodiploid cells” value [8]?
A: 42.5%

Q: What about the pKi [9] of the same compound?
A: 4.41

Q: What about the “reduction of TNF-α-induced NFκB activity (SEAP)” value [10] of the same compound?
A: over 60%

Q: What does the source list for `N=C(N)N1CCC(CN(NS(=O)(=O)c2ccc3ccccc3c2)C(=O)N2CCCCCC2)CC1` [Compound 16]?
A: reversibility of proteasome inhibition [1]: reversibly inhibit; mode of inhibition, trypsin-like activity ([2]; SigmaPlot 11): non-competitive; pKi [2]: 4.77; pKi [3]: 4.54; residual metabolic activity relative to control [4]: severe and selective decrease; cytotoxicity group (Figure 3A) [4]: severely cytotoxic (severely impaired the metabolic activity, such that it fell to under 6%); viability at 100 µM [4]: < 6%; pIC50 [5]: 4.66; Ki ' chymotrypsin-like activity [6]: Ki ' = 37±13 µM; compound-induced procaspase-3 cleavage after zVad-fmk pretreatment [7]: completely blocked; cell cycle distribution [8]: accumulation of cells in the S phase; percentage of cells in the sub-G1 phase (< 2n) [8]: 22.7%; number of hypodiploid cells [8]: 51.1%; pKi [9]: 4.18; reduction of TNF-α-induced NFκB activity (SEAP) [10]: over 60%
